Results on 2 compounds are retold here after US20190293584A1, “Detection of Living Cells” (priority 2018, published 2019).

Structures are written as SMILES. Structures can show the parent of a compound that is named as a salt. Bounds are passed on as bounds.

Assay [1] has as its system M. bovis BCG. It counts as cell-based, Mycobacterium bovis BCG.
The subject of assay [2] is M. smegmatis. Conditions: known from literature; cited from earlier work.
In assay [3] the test system is M. tuberculosis. Conditions: known from literature; cited from earlier work.
For assay [4], the system named is M. smegmatis. It counts as cell-based, Mycobacterium smegmatis.
The test system of assay [5] is M. bovis BCG. As to conditions: known from literature; cited from earlier work.
Assay [6] deals with most other non-mycobacterial species. As to conditions: known from literature; cited from earlier work.
In assay [7] the test system is mycobacteria. As to conditions: known from literature; cited from earlier work.
For assay [8], the system named is cocktail of S. aureus and P. aeruginosa. In words: m-EIS bulk capacitance vs time, incompletely decontaminated artificial sputum with non-mycobacterial cultures. It counts as cell-based, Staphylococcus aureus and Pseudomonas aeruginosa. Conditions: incomplete decontamination: NaOH-NALC approximately 1 minute, 0.25 N NaOH. The text has this:
All m-EIS readings were done post digestion and decontamination of the samples using the NALC-NaOH technique. In the first case, the sample has no bacteria and no changes in charge storage (bulk capacitance) should occur at any point in time. It is expected to see a flat line as there should be no change in the bulk capacitance over time. In case three, where the sample contains gram-positive and gram-negative bacteria, but no mycobacteria, all organisms should be killed during decontamination (pre-treatment) itself, and the addition of the antibiotics is not expected to cause any changes to the measured value of bulk capacitance. However, if there are mycobacteria in the sample (as in case […]), the mycobacteria should survive the decontamination process and continue to grow in the presence of Carbenicillin (case 2B). However, they will die in the presence of amikacin (case 2A). […]
The experimental protocol requires periodic (e.g., every hour) performance of an electrical “scan” of sample aliquots in a microfluidic cassette, wherein electrical impedance was measure at multiple (200) frequencies ranging from 1 kHz to 100 MHz. […] At each frequency (ω), both the in-phase and out-of-phase components of the electrical impedance, Z, (resistance (R) and reactance (X)) were measured. […]

As for `NCC[C@H](O)C(=O)N[C@@H]1C[C@H](N)[C@@H](O[C@H]2O[C@H](CN)[C@@H](O)[C@H](O)[C@H]2O)[C@H](O)[C@H]1O[C@H]1O[C@H](CO)[C@@H](O)[C@H](N)[C@H]1O` [Amikacin], in assay [1] (M. bovis BCG in artificial sputum, exposed to amikacin), the “time-to-detection (TTD)” value is less than 3 h. In addition, the bactericidal effect result in assay [2], in assay [3] and in assay [5] was “bactericidal effects” throughout. For the same compound, in assay [4] (M. smegmatis in artificial sputum after NaOH-NALC decontamination, initial loads (1 to 5)×10^5 CFU/ml, amikacin 32 μg/ml, carbenicillin 25 μg/ml), the “time-to-detection (TTD): earliest time at which bulk capacitance is significantly lower than baseline” value was less than 3 h.
Take `CC1(C)S[C@@H]2[C@H](NC(=O)C(C(=O)O)c3ccccc3)C(=O)N2[C@H]1C(=O)O` (some centres unmarked) [Carbenicillin, Carbenicillin disodium salt]: the “activity against non-mycobacterial species” value in assay [6] was “bactericidal”. In addition, the activity against mycobacteria entry in assay [7] is reported as “ineffective”. Besides, in assay [1] (Case 2, M. bovis BCG, 3 hours observation), the “rate of increase in bulk capacitance” value is on record as “negligible”. Moreover, the “change of bulk capacitance over time” value in assay [1] (Case 2, M. bovis BCG, duration of observation 3 hours) is “no growth was seen”; in assay [8], “decreases in bulk capacitance were observed over time”. Moreover, the “change of bulk capacitance (impedance values) over time” value in assay [4] (Case 2: M. smegmatis, P aeruginosa and S. aureus, after decontamination) is on record as “not found to show any decrease over time”.
